According to patent publication US6699868B2, “Pyridazinyl phenyl hydrazones useful against congestive heart failure” (Orion Corporation, priority 2000, dated 2004):
Where two headings read alike, the source gives them in different places.

What was measured:
skinned cardiac fiber = test: Calcium sensitizing effect in skinned cardiac fiber; format: cell-based, guinea-pig; settings: test compound 0.1-10 μM added cumulatively, calcium (pCa 6.0 or 6.2)-induced tension, room temperature; for Emax: Cavia porcellus, maximum effect, read-out: Change in force/ % change from control (maximum calcium sensitizing effect in skinned fiber)
Description: Experiment 1. Calcium sensitizing effect in skinned cardiac fiber
The heart of a guinea-pig was excised and perfused with ice-cold saponin (125 mg/l) skinning solution consisting of (mM): K^+-acetate 74.7. EGTA-Na2 10, MgSO4 5.4, ATP-Na2 4, MOPS 20, pH 7.0 (by 1 M KOH). Left ventricular papillary muscle was dissected and sonicated at 10 Watt for 60 s. The distance between ultrasound probe and the papillary muscle was 10 mm. The fibres (<200 μm in diameter) were dissected from the surface of sonicated papillary muscles in the same solution.
The fibre was glued between platinum wires, one attached to an isometric force transducer (type AE-801,SensoNor, Horten, Norway) and another to a micro manipulator. The fibre was relaxed in a solution consisting of (mM): EGTA-Na2 10, MgSO4 5.4, ATP-Na2 4, MOPS 20. The pH of the solution was adjusted to 7.0 and ionic strength to 0.16 M by the addition of KOH and K^+-acetate. Creatine kinase and creatine phosphate were not added as an ATP generating system because the developed tension was well sustained for the time required for experiment. The calculations for ionic strength and for free calcium (pCa 7.0-6.2) were performed using a suitable program. The fibres were stretched in relaxing solution until resting tension was just noticeable. When the calcium (pCa 6.0 or 6.2)-induced tension had reached steady state the test compound (final concentrations 0.1, 0.3, 1, 3,and 10 μM) was cumulatively added into the solution at 6 min intervals. All the experiments were carried out with fresh fibres at normal room temperature.

isolated heart = test: Effect in left ventricular pressure derivatives in isolated heart (Langendorff); settings: isolated guinea-pig heart, constant pressure 50 mmHg, 37° C., read-out: EC50 on maximal positive derivative of the left ventricular systolic pressure
Description: Experiment 2. Effect in left ventricular pressure derivatives in isolated heart
After sacrification the heart of a guinea-pig was rapidly excised and rinsed in oxygenated perfusion buffer. A cannula was inserted into the aorta and secured with a ligature. Retrograde perfusion began as soon as the heart was placed in a thermostatically controlled moist chamber of the Langendorff apparatus (Hugo Sachs Elektronik, KG). Modified Tyrode solution (37° C.), equilibrated in a thermostatically controlled bulb oxygenator with carbogen (95% O2 and 5% CO2), was used as a perfusion buffer. The composition of the Tyrode solution was (in mM): NaCl 135; MgCl2×6H2O 1; KCl 5; CaCl2×2H2O 2; NaHCO3 15; Na2HPO4×2H2O 1; glucose 10; pH 7.3-7.4. The perfusion buffer was delivered at the top of the oxygenator by a pump and driven automatically by its controller. Subsequently, the buffer was delivered into the bulbs of the oxygenator chamber by a rotating disk. It was dispersed by making a thin fluid film on a large inner oxygenator surface in O2/CO2 atmosphere leading to saturation of the perfusate with oxygen (partial pressure 660 mmHg at 37° C.).
The experiments were carried out under constant pressure condition (50 mmHg). After a short prestabilization (10 min) a latex balloon (size 4) was carefully placed into the left ventricle through the left pulmonary vein and the left atrium. The latex balloon was attached to a stainless-steel cannula coupled with a pressure transducer. The latex balloon, the cannula and the chamber of the pressure transducer were carefully filled with ethylene glycol/water (1:1) mixture avoiding any air-bubble. The isovolumetric left ventricular pressure was recorded through the pressure transducer. At the beginning of the experiment, the volume of the balloon was adjusted to obtain a diastolic pressure of approximately 5 mmHg. Before starting the experiment the heart was allowed to stabilise further for 30-50 min. The systolic and end-diastolic left ventricular pressures were recorded for calculating the maximal positive and negative derivatives of the left ventricular pressure.

Compound | Emax (skinned cardiac fiber) [%] | EC50 (isolated heart; Cavia porcellus) [nM] | melting point [°C] | Change in force/ % change from control (maximum calcium sensitizing effect in skinned fiber) (skinned cardiac fiber) [% change from control] | EC50 (isolated heart) [nM]
COc1c(O)ccc(C=NNc2ccc(C3=NNC(=O)C[C@H]3C)cc2)c1[N+](=O)[O-] [Example 2, (R)-6-{4-[N′-(4-Hydroxy-3-methoxy-2-nitro-benzylidene)-hydrazino]-phenyl}-5-methyl-4,5-dihydro-2H-pyridazin-3-one] | 207 | 20 |  |  | 
COc1c(O)ccc(C=NNc2ccc(C3=NNC(=O)CC3C)cc2)c1[N+](=O)[O-] (stereo not drawn) [Example 6, 6-{4-[N′-(4-Hydroxy-3-methoxy-2-nitro-benzylidene)-hydrazino]-phenyl}-5-methyl-4,5-dihydro-2H-pyridazin-3-one] | 32.9 | 310 | 235 to 239 |  | 
Cc1cc(=O)[nH]nc1-c1ccc(NN=Cc2ccc(O)cc2O)cc1 [Example 21, 6-{4-[N′-(2,4-Dihydroxybenzylidene)hydrazino]phenyl}-5-methyl-2H-pyridazin-3-one] | 44.2 | 3040 | 303 to 310 |  | 
CC(=NNc1ccc(-c2n[nH]c(=O)cc2C)cc1)c1ccc(O)cc1O [Example 23, 6-{4-{N′-[1-(2,4-Dihydroxyphenyl)ethylidene]hydrazino}phenyl}-5-methyl-2H-pyridazin-3-one] | 39.9 | 2470 |  |  | 
Cc1cc(=O)n(C)nc1-c1ccc(NN=Cc2ccc(O)cc2O)cc1 [Example 24, 6-{4-[N′-(2,4-Dihydroxybenzylidene)hydrazino]phenyl}-2,5-dimethyl-2H-pyridazin-3-one] | 42 |  | 266 to 269 |  | 
CC(=NNc1ccc(C2=NNC(=O)CC2C)cc1)c1ccc(O)cc1O (stereo not drawn) [Example 33, 6-(4-{N′-[1-(2,4-Dihydroxy-phenyl)-ethylidene]-hydrazino}-phenyl)-5-methyl-4,5-dihydro-2H-pyridazin-3-one] | 55.2 | 400 | 259 to 261 |  | 
CC1CC(=O)NN=C1c1ccc(NN=C(c2ccc(O)cc2O)c2ccc(O)cc2O)cc1 (stereo not drawn) [Example 34, 6-(4-{N′-[Bis-(2,4-dihydroxy-phenyl)-methylene]-hydrazino}-phenyl)-5-methyl-4,5-dihydro-2H-pyridazin-3-one] | 52.8 | 110 |  |  | 
CC(=NNc1ccc(C2=NNC(=O)CC2C)cc1)c1cc(O)ccc1O (stereo not drawn) [Example 35, 6-(4-{N′-[1-(2,5-Dihydroxy-phenyl)-ethylidene]-hydrazino}-phenyl)-5-methyl-4,5-dihydro-2H-pyridazin-3-one] | 25.4 | 310 | 279 to 284 |  | 
CC(=O)Nc1ccc(C(C)=NNc2ccc(C3=NNC(=O)CC3C)cc2)cc1 (stereo not drawn) [Example 37, N-[4-(1-{[4-(4-Methyl-6-oxo-1,4,5,6-tetrahydro-pyridazin-3-yl)-phenyl]-hydrazono}-ethyl)-phenyl]-acetamide] | 21.7 |  | 145 to 155 |  | 
CC(=NNc1ccc(C2=NNC(=O)CC2C)cc1)c1ccc(O)c(C)c1O (stereo not drawn) [Example 38, 6-(4-{N′-[1-(2,4-Dihydroxy-3-methyl-phenyl)-ethylidene]-hydrazino}-phenyl)-5-methyl-4,5-dihydro-2H-pyridazin-3-one] | 32.2 |  | 244 to 248 |  | 
CCc1c(O)ccc(C=NNc2ccc(C3=NNC(=O)CC3C)cc2)c1O (stereo not drawn) [Example 40, 6-{4-[N′-(3-Ethyl-2,4-dihydroxy-benzylidene)-hydrazino]-phenyl}-5-methyl-4,5-dihydro-2H-pyridazin-3-one] | 100 | 710 | 238 to 240 |  | 
CCCc1c(O)ccc(C=NNc2ccc(C3=NNC(=O)CC3C)cc2)c1O (stereo not drawn) [Example 43, 6-{4-[N′-(2,4-Dihydroxy-3-propyl-benzylidene)-hydrazino]-phenyl}-5-methyl-4,5-dihydro-2H-pyridazin-3-one] | 39 | 1750 | 160 to 170 |  | 
CC(=NNc1ccc(C2=NNC(=O)CC2C)cc1)c1ccc(O)c(C)c1O (stereo not drawn) [Example 49, 6-(4-{N-[1-(2,4-Dihydroxy-3-methylphenyl)ethylidene]hydrazino}phenyl)-5-methyl-4,5-dihydro-2H-pyridazin-3-one] |  |  |  | 28.7 | 250
CC1CC(=O)NN=C1c1ccc(NN=Cc2ccc(O)c([N+](=O)[O-])c2)cc1 (stereo not drawn) [Example 63, 6-{4-[N′-(4-Hydroxy-3-nitro-benzylidene)-hydrazino]-phenyl}-5-methyl-4,5-dihydro-2H-pyridazin-3-one] |  |  | 230 to 233 |  | 
CC1CC(=O)NN=C1c1ccc(NN=C(CCC(=O)O)c2ccc(O)cc2O)cc1 (stereo not drawn) [Example 64, 4-(2,4-Dihydroxy-phenyl)-4-{[4-(4-methyl-6-oxo-1,4,5,6-tetrahydro-pyridazin-3-yl)-phenyl]-hydrazono}-butyric acid] |  |  | 299 to 302 |  | 
CC1CC(=O)NN=C1c1ccc(NN=C(CCCC(=O)O)c2ccc(O)cc2O)cc1 (stereo not drawn) [Example 66, 5-(2,4-Dihydroxy-phenyl)-5-{[4-(4-methyl-6-oxo-1,4,5,6-tetrahydro-pyridazin-3-yl)-phenyl]-hydrazono}-pentanoic acid] |  |  | 235 to 240 |  | 
COc1c(O)ccc(C(C)=NNc2ccc(C3=NNC(=O)CC3C)cc2)c1[N+](=O)[O-] (stereo not drawn) [Example 67, 6-(4-{N′-[1-(4-Hydroxy-3-methoxy-2-nitro-phenyl)-ethylidene]-hydrazino}-phenyl)-5-methyl-4,5-dihydro-2H-pyridazin-3-one] |  |  | 251 to 254 |  | 
